For 18 compounds, EC50 results are on record in patent US9290487B2, “Pharmaceutical composition for treating diabetes” (Ajinomoto Co., Inc., priority 2011, dated 2016).

In one experiment the target is human GYS1 (glycogen synthase) (Homo sapiens (Human), UniProt P13807). In words: Measurement of glycogen synthase activity (coupled pyruvate kinase/lactate dehydrogenase assay, absorbance at 340 nm). The format is biochemical. Conditions: concentration inducing relative activity of 50% (100% = Ex. 1 of WO/2011/058154 at 10 μM); incubation at 30° C. for 25 minutes (Examples 1 to 10). How it is done: A human GYS1 expression plasmid (pCDNA3.1(+)-hGYS1) was constructed by the following method. Using a human skeletal muscle cDNA of Human MTC Panel I (Takara Bio Inc., 636742) as a template, a human GYS1 gene was amplified by a PCR method using cloning primers (Forward Primer: ATGCCTTTAAACCGCAC (SEQ ID NO: 1), Reverse Primer: TTAGTTACGCTCCTCGC (SEQ ID NO: 2)). Using the amplified human GYS1 sequence as a template, a restriction enzyme sequence was added by a PCR method using sub-cloning primers (Forward Primer: […] (SEQ ID NO: 3), Reverse Primer: […] (SEQ ID NO: 4)). Then, the human GYS1 gene was introduced between a Xho I site and a Xba I site of pCDNA3.1(+) (Invitrogen Corporation, V790-20).
human GYS1 (glycogen synthase), sequence (P13807 whole entry): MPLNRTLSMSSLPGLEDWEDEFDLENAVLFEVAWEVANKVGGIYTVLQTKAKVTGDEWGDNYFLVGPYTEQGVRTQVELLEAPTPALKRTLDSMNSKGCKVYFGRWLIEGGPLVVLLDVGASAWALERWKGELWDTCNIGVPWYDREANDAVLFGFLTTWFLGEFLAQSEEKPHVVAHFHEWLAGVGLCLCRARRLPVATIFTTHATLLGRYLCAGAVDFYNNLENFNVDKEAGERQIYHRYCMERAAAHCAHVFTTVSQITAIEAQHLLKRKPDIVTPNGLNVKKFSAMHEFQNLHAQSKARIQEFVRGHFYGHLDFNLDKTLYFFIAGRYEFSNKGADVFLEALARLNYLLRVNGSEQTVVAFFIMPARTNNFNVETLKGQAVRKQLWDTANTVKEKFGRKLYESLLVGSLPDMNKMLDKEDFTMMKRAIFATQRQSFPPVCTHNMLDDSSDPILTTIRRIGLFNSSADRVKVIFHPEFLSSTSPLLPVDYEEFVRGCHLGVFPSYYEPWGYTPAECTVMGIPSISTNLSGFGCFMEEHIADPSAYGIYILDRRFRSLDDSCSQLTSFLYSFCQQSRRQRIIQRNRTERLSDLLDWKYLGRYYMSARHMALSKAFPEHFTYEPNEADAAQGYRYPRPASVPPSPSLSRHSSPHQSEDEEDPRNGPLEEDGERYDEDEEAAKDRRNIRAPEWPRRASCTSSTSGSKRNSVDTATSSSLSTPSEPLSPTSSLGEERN
Glycogen synthase was prepared by the following method according to the published article (THE JOURNAL OF BIOLOGICAL CHEMISTRY Vol. 269, No. 41, 25534-25542, 1994). Human kidney-derived HEK293T cells were seeded in a dish (Thermo Fisher Scientific Inc., 168381) using a 10% FBS-containing DMEM (Nacalai Tesque, Inc., 0845874) medium, and cultured overnight. Then, using Lipofectamine LTX (Invitrogen Corporation, 15338-100), the human GYS1 expression vector was transfected according to the attached manual. After culturing under conditions of 37° C. and 5% CO2 for 2 days, the resultant was dissolved in a lysis buffer (50 mM Tris-HCl (pH 8.0), 10 mM EDTA, 2 mM EGTA, 100 mM NaF, 1 mM PMSF, 1 mM DTT, 1× Complete (Roche Diagnostics K. K., 1873580)), homogenized, and then centrifuged at 16000×g at 4° C. for 15 minutes. To the precipitated fraction, a lysis buffer was added. Re-dissolved fractions were used as glycogen synthase for evaluation.
The glycogen synthase activity was measured by the following method. To a polystyrene 96-well plate, a solution containing 30 mM glycylglycine (pH 7.3), 40 mM KCl, 20 mM MgCl2, 9.2% DMSO containing one of the test compounds at various concentrations, and 10 mM glucose-6-phosphate (Sigma-Aldrich Corporation, G7879) was added by 12 μL/well.
Next, a substrate solution containing 30 mM glycylglycine (pH 7.3), 4.3 mg/mL of glycogen (Sigma-Aldrich Corporation, G8876), 21.6 mM UDP-glucose (Sigma-Aldrich Corporation, U4625), 21.6 mM phosphoenolpyruvic acid (Sigma-Aldrich Corporation, P0564), and 4.05 mM NADH (Sigma-Aldrich Corporation, N8129) was added by 18 μL/well.
Further, an enzyme solution containing 50 mM Tris-HCl (pH 8.0), 27 mM DTT (Nacalai Tesque, Inc., 14128-04), 0.2 mg/mL of bovine serum albumin, 0.17 mg/mL of the glycogen synthase, 1.5 μL of a pyruvate kinase/lactate dehydrogenase solution (Sigma-Aldrich Corporation, P0294) was added by 18 μL/well to prepare a reaction solution. After the reaction solution was incubated (at 30° C. for 25 minutes for Examples 1 to 10, at 37° C. for 20 minutes for Examples 11 to 75), the absorbance at 340 nm was measured using Benchmark Plus (Bio-Rad Laboratories, Inc.).
The activities of the test compounds were calculated by the following method. The change in the absorbance (ΔA340) was calculated by subtracting the absorbance at 340 nm of the reaction solution containing the compound and DMSO from the absorbance at 340 nm of a reaction solution not containing the compound but containing only DMSO. The ΔA340 of the reaction solution containing the compound of Example 1 in WO/2011/058154 at the final concentration of 10 μM was taken as 100% to calculate the relative activity (%) of the test compounds at various concentrations. EC50 representing the concentration of the compound which induces an increase in the relative activity to 50% was calculated using XLfit (idbs).
Usually EC50 stands for the concentration at which the effect is half-maximal. A low value points to a more potent agent. In turn, `O=C(O)[C@@H]1CCCN1C(=O)c1cccc(COc2ccc(-c3ccc(F)c4ccoc34)cc2)c1` [compound of Ex. 3, 1-(3-{[4-(4-fluoro-1-benzofuran-7-yl)phenoxy]methyl}benzoyl)-L-proline] registered an EC50 of 0.11 µM.

In turn, `CN(CC(=O)O)C(=O)c1cccc(COc2ccc(-c3cc(F)cc4c3OCC4)cc2)c1` [compound of Ex. 2, N-(3-{[4-(5-fluoro-2,3-dihydro-1-benzofuran-7-yl)phenoxy]methyl}benzoyl)-N-methylglycine] yielded an EC50 of 0.59 µM.

The same experiment, now with this note: concentration inducing relative activity of 50% (100% = Ex. 1 of WO/2011/058154 at 10 μM); incubation at 37° C. for 20 minutes (Examples 11 to 75).
Turning to `O=C(O)[C@@H]1CCCN1C(=O)c1cccc(COc2ccc(-c3ccc(F)c4occc34)cc2)c1` [compound of Ex. 25, 1-(3-{[4-(7-fluoro-1-benzofuran-4-yl)phenoxy]methyl}benzoyl)-L-proline], the EC50 was 0.4 µM. `COCc1cc2c(F)c(F)cc(-c3ccc(OCc4cccc(C(=O)N5CCC[C@H]5C(=O)O)c4)cc3)c2s1` [compound of Ex. 74, 1-[3-({4-[4,5-difluoro-2-(methoxymethyl)-1-benzothien-7-yl]phenoxy}methyl)benzoyl]-L-proline] came in with an EC50 of 0.2 µM. The same measure, in the same setting: the value for `CSc1cc(F)c(F)cc1-c1ccc(OCc2cccc(C(=O)N3CCC[C@H]3C(=O)O)c2)cc1` [compound of Ex. 38, 1-[3-({[4′,5′-difluoro-2′-(methylthio)biphenyl-4-yl]oxy}methyl)benzoyl]-L-proline] was 0.029 µM; that for `Cc1csc2c(-c3ccc(OCc4cccc(C(=O)N5CCC[C@H]5C(=O)O)c4)cc3)cc(F)c(F)c12` [compound of Ex. 55, 1-(3-{[4-(4,5-difluoro-3-methyl-1-benzothien-7-yl)phenoxy]methyl}benzoyl)-L-proline] was 0.085 µM.

The compound `O=C(O)[C@@H]1CCCN1C(=O)c1cccc(COc2ccc(-c3c(F)cc(F)c4ccoc34)cc2)c1` [compound of Ex. 20, 1-(3-{[4-(4,6-difluoro-1-benzofuran-7-yl)phenoxy]methyl}benzoyl)-L-proline] came in with a concentration for a half-maximal effect (EC50) of 0.064 µM. Compound `O=C(O)[C@@H]1CCCN1C(=O)c1cccc(COc2ccc(-c3cc(F)cc4ccoc34)cc2)c1` [compound of Ex. 12, 1-(3-{[4-(5-fluoro-1-benzofuran-7-yl)phenoxy]methyl}benzoyl)-L-proline] showed an EC50 of 0.35 µM. Still for that read-out and setting: the value for `C#CCOc1cc(F)c(F)cc1-c1ccc(OCc2cccc(C(=O)N3CCC[C@H]3C(=O)O)c2)cc1` [compound of Ex. 34, 1-[3-({[4′,5′-difluoro-2′-(prop-2-yn-1-yloxy)biphenyl-4-yl]oxy}methyl)benzoyl]-L-proline] was 0.017 µM; that for `C#CCOc1cc(-c2ccc(OCc3cccc(C(=O)N4CCC[C@H]4C(=O)O)c3)cc2)cc(F)c1F` [compound of Ex. 47, 1-[3-({[3′,4′-difluoro-5′-(prop-2-yn-1-yloxy)biphenyl-4-yl]oxy}methyl)benzoyl]-L-proline] was 0.15 µM. `O=C(O)[C@@H]1CCCN1C(=O)c1cccc(COc2ccc(-c3cc(F)c(F)c4occc34)cc2)c1` [compound of Ex. 30, 1-(3-{[4-(6,7-difluoro-1-benzofuran-4-yl)phenoxy]methyl}benzoyl)-L-proline] came in with an EC50 of 0.14 µM. On the same count and under the same terms, in the case of `NC(=NO)c1cc2c(F)c(F)cc(-c3ccc(OCc4cccc(C(=O)N5CCC[C@H]5C(=O)O)c4)cc3)c2o1` [compound of Ex. 57, 1-{3-[(4-{2-[amino(hydroxyimino)methyl]4,5-difluoro-1-benzofuran-7-yl}phenoxy)methyl]benzoyl}-L-proline] it was 0.14 µM; in that of `O=C(O)[C@@H]1CCCN1C(=O)c1cccc(COc2ccc(-c3cc(F)c(F)c4ccsc34)cc2)c1` [compound of Ex. 39, 1-(3-{[4-(4,5-difluoro-1-benzothien-7-yl)phenoxy]methyl}benzoyl)-L-proline], 0.042 µM.

With `C[C@@H](C(=O)O)N(C)C(=O)c1cccc(COc2ccc(-c3cc(F)c(F)c4ccoc34)cc2)c1` [compound of Ex. 63, N-(3-{[4-(4,5-difluoro-1-benzofuran-7-yl)phenoxy]methyl}benzoyl)-N-methyl-L-alanine], the concentration giving a half-maximal response (EC50) worked out at 0.22 µM.

`O=C(O)[C@@H]1CCCN1C(=O)c1cccc(COc2ccc(-c3ccc(F)c4c3OCO4)cc2)c1` [compound of Ex. 13, 1-(3-{[4-(7-fluoro-1,3-benzodioxol-4-yl)phenoxy]methyl}benzoyl)-L-proline] yielded a half-maximal effective concentration (EC50) of 0.27 µM. `O=C(O)[C@@H]1CCCN1C(=O)c1cccc(COc2ccc(-c3ccc(F)c4[nH]ccc34)cc2)c1` [compound of Ex. 29, 1-(3-{[4-(7-fluoro-1H-indol-4-yl)phenoxy]methyl}benzoyl)-L-proline] had an EC50 of 0.23 µM. In the case of `COCc1cc2c(F)c(F)cc(-c3ccc(OCc4cccc(C(=O)N5CCC[C@H]5C(=O)O)c4)cc3)c2o1` [compound of Ex. 73, 1-[3-({4-[4,5-difluoro-2-(methoxymethyl)-1-benzofuran-7-yl]phenoxy}methyl)benzoyl]-L-proline], the concentration giving a half-maximal response (EC50) was found to be 0.065 µM. Still for that read-out and setting: the value for `N#CCc1coc2c(-c3ccc(OCc4cccc(C(=O)N5CCC[C@H]5C(=O)O)c4)cc3)cc(F)c(F)c12` [compound of Ex. 46, 1-[3-({4-[3-(cyanomethyl)-4,5-difluoro-1-benzofuran-7-yl]phenoxy}methyl)benzoyl]-L-proline] was 0.15 µM.
